Source: patent US10351547B2, “Somatostatin modulators and uses thereof” (priority 2016, dated 2019)

Target: human SSTR2 (Homo sapiens (Human), UniProt P30874)
Test: Human SSTR2 intracellular cAMP functional assay for agonists (HTRF)
Type: cell-based
Details: CHO-K1 cells stably expressing human SSTR2; NKH477-stimulated cAMP; read-out: EC50 (inhibition of cAMP activities via human SST2R)
How it was run: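 Cells bearing human SSTR2 exposed to compound for 20 minutes at 37 °C; after lysis, cAMP measured by time-resolved fluorescence (HTRF) and converted via a standard curve. EC50 calculated from cAMP versus compound concentration.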

Chain of human SSTR2 (P30874 whole entry): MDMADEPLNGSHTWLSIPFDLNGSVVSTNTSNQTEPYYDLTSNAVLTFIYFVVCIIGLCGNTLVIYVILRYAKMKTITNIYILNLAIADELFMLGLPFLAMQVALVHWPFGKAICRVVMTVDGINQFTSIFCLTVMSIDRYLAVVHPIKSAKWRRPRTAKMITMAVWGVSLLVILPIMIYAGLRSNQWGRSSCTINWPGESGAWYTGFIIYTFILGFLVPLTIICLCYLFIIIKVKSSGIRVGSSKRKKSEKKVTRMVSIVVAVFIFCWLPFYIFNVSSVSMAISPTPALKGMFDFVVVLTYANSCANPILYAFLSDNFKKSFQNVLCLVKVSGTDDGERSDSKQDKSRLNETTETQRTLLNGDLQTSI

Row | SMILES | EC50 [nM]
1 | Cc1cc(F)cc(-c2cnc3ncc(-c4cc(F)cc(C#N)c4O)cc3c2N2CCC(N)CC2)c1 [4-3, 3-[5-(4-aminopiperidin-1-yl)-6-(3-fluoro-5-methylphenyl)-1,8-naphthyridin-3-yl]-5-fluoro-2-hydroxybenzonitrile] | < 10
2 | Cc1cc(Cl)cc(-c2cnc3ncc(-c4cccc(C#N)c4O)cc3c2N2CCC(N)CC2)c1 [4-4, 3-[5-(4-aminopiperidin-1-yl)-6-(3-chloro-5-methylphenyl)-1,8-naphthyridin-3-yl]-2-hydroxybenzonitrile] | < 10
